Values of other authors, collected in publication PMC5344293, “A phase 1 dose-escalation and expansion study of binimetinib (MEK162), a potent and selective oral MEK1/2 inhibitor” (British Journal of Cancer, 2017).
Where two headings read alike, the source gives them in different places.

Assays:
non-melanoma tumours [1] = system: non-melanoma tumours; parameters: method as in Delord et al, 2010; settings: ref Delord et al, 2010; cited from earlier work
non-melanoma tumours [2] = system: non-melanoma tumours; parameters: method as in Rosen et al, 2011; settings: ref Rosen et al, 2011; cited from earlier work
advanced solid tumours = system: advanced solid tumours; parameters: method as in Infante et al, 2012; settings: ref Infante et al, 2012, cited from earlier work
[3] = system: metastatic biliary cancer; parameters: method as in Bekaii-Saab et al, 2011; settings: ref Bekaii-Saab et al, 2011; cited from earlier work
non-melanoma tumours [4] = system: non-melanoma tumours; parameters: method as in Adjei et al, 2008; settings: ref Adjei et al, 2008; cited from earlier work

In the case of O=C(NC[C@H](O)CO)c1ccncc1Nc1ccc(I)cc1F [pimasertib], the “Objective responses to single-agent treatment in non-melanoma patients” value (“Objective responses … in non-melanoma patients” for short) (non-melanoma tumours [1]) is given as “no objective responses”.

In the case of O=C(c1ccc(F)c(F)c1Nc1ccc(I)cc1F)N1CC(O)([C@@H]2CCCCN2)C1 [cobimetinib], the “Objective responses … in non-melanoma patients” value (non-melanoma tumours [2]) is listed as “no objective responses”.

In the case of CC(=O)Nc1cccc(-n2c(=O)n(C3CC3)c(=O)c3c(Nc4ccc(I)cc4F)n(C)c(=O)c(C)c32)c1 [trametinib], the “Non-melanoma patients with objective responses” value (advanced solid tumours; NSCLC and pancreas cancer (2 patients each)) is given as 4 patients and the “Patients with objective responses” value (advanced solid tumours; all tumour types) is given as 21 patients.

For Cn1cnc2c(F)c(Nc3ccc(Br)cc3Cl)c(C(=O)NOCCO)cc21 [selumetinib], the “Objective response, patients” value [3] is given as 12% and the “Objective responses … in non-melanoma patients” value (non-melanoma tumours [4]) is given as “no objective responses”.
